# Laboratory results published in ChEMBL document CHEMBL1137449, “A refined agonist pharmacophore for protease activated receptor 2” (Bioorg Med Chem Lett, 2007).
# Active and inactive are the calls of the source. No cut-off for these calls is given here. Square brackets hold non-standard residues; d marks the D form. Peptide text beside a SMILES is read from it. Phe(4-NO2) = N[C@@H](Cc1ccc([N+](=O)[O-])cc1)C(=O)O; Phe(3,4-Cl2) = N[C@@H](Cc1ccc(Cl)c(Cl)c1)C(=O)O; Phe(4-CN) = N#Cc1ccc(C[C@H](N)C(=O)O)cc1; Phe(4-Cl) = N[C@@H](Cc1ccc(Cl)cc1)C(=O)O; Phe(4-I) = N[C@@H](Cc1ccc(I)cc1)C(=O)O; 3Pal = N[C@@H](Cc1cccnc1)C(=O)O
# Molecular target: Proteinase-activated receptor 2 (Homo sapiens) (UniProt P55085)
# Experiment: Agonist activity at PAR2 expressed in 2-furoyl-LIGRLI-NH2 treated human HT29 cells assessed as intracellular calcium response
# Assay type: functional, cell-based
# Conditions: HT-29
row,SMILES,Activity
1,CC[C@H](C)[C@H](NC(=O)[C@H](Cc1ccc([N+](=O)[O-])cc1)NC(=O)[C@H](CCCNC(=N)N)NC(=O)CNC(=O)[C@@H](NC(=O)[C@H](CC(C)C)NC(=O)[C@@H](N)CO)[C@@H](C)CC)C(N)=O (H-SLIGR[Phe(4-NO2)]I-NH2),inactive

# Molecular target: T1, Proteinase-activated receptor 2 (Homo sapiens, UniProt P55085)
# T1 sequence (P55085 whole entry): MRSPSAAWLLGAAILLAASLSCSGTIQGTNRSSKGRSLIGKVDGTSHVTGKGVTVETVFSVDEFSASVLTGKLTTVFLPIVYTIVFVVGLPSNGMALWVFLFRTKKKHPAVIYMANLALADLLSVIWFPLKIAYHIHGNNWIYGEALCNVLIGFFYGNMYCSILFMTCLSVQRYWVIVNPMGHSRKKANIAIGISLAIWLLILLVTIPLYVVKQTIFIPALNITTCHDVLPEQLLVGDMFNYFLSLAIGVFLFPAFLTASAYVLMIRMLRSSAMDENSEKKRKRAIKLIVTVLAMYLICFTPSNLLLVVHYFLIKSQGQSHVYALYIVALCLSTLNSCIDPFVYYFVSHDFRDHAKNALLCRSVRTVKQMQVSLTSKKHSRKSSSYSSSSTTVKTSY
# Experiment: Agonist activity at PAR2 expressed in human HT29 cells assessed as intracellular calcium release
# Assay type: functional, cell-based, HT-29
# Conditions: not given
row,SMILES,EC50
1,CC[C@H](C)[C@H](NC(=O)[C@H](Cc1ccc([N+](=O)[O-])cc1)NC(=O)[C@H](CCCNC(=N)N)NC(=O)CNC(=O)[C@@H](NC(=O)[C@H](CC(C)C)NC(=O)[C@@H](N)CO)[C@@H](C)CC)C(N)=O (H-SLIGR[Phe(4-NO2)]I-NH2),400 nM
2,CC[C@H](C)[C@H](NC(=O)[C@H](Cc1ccc(C#N)cc1)NC(=O)[C@H](CCCNC(=N)N)NC(=O)CNC(=O)[C@@H](NC(=O)[C@H](CC(C)C)NC(=O)[C@@H](N)CO)[C@@H](C)CC)C(N)=O (H-SLIGR[Phe(4-CN)]I-NH2),900 nM
3,CC[C@H](C)[C@H](NC(=O)[C@H](Cc1ccc(O)cc1)NC(=O)[C@H](CCCN=C(N)N)NC(=O)CNC(=O)[C@@H](NC(=O)[C@H](CC(C)C)NC(=O)[C@@H](N)CO)[C@@H](C)CC)C(N)=O (H-SLIGRYI-NH2),400 nM
4,"CC[C@H](C)[C@H](NC(=O)[C@H](Cc1ccc(Cl)c(Cl)c1)NC(=O)[C@H](CCCN=C(N)N)NC(=O)CNC(=O)[C@@H](NC(=O)[C@H](CC(C)C)NC(=O)[C@@H](N)CO)[C@@H](C)CC)C(N)=O (H-SLIGR[Phe(3,4-Cl2)]I-NH2)",300 nM
5,CC[C@H](C)[C@H](NC(=O)[C@H](Cc1cccnc1)NC(=O)[C@H](CCCNC(=N)N)NC(=O)CNC(=O)[C@@H](NC(=O)[C@H](CC(C)C)NC(=O)[C@@H](N)CO)[C@@H](C)CC)C(N)=O (H-SLIGR[3Pal]I-NH2),1100 nM
6,CC[C@H](C)[C@H](NC(=O)[C@H](CC(C)C)NC(=O)[C@@H](N)CO)C(=O)NCC(=O)N[C@@H](CCCNC(=N)N)C(=O)N[C@@H](CC(C)C)C(=O)N[C@@H](CC(C)C)C(N)=O (H-SLIGRLL-NH2),1200 nM
7,CC[C@H](C)[C@H](NC(=O)[C@H](Cc1ccc(Cl)cc1)NC(=O)[C@H](CCCNC(=N)N)NC(=O)CNC(=O)[C@@H](NC(=O)[C@H](CC(C)C)NC(=O)[C@@H](N)CO)[C@@H](C)CC)C(N)=O (H-SLIGR[Phe(4-Cl)]I-NH2),500 nM
8,CC[C@H](C)[C@H](NC(=O)[C@H](Cc1ccccc1)NC(=O)[C@H](CCCNC(=N)N)NC(=O)CNC(=O)[C@@H](NC(=O)[C@H](CC(C)C)NC(=O)[C@@H](N)CO)[C@@H](C)CC)C(N)=O (H-SLIGRFI-NH2),1000 nM
9,CC[C@H](C)[C@H](NC(=O)[C@H](Cc1ccc(I)cc1)NC(=O)[C@H](CCCNC(=N)N)NC(=O)CNC(=O)[C@@H](NC(=O)[C@H](CC(C)C)NC(=O)[C@@H](N)CO)[C@@H](C)CC)C(N)=O (H-SLIGR[Phe(4-I)]I-NH2),600 nM
